According to patent publication US12611380B2, “Solution and method for reducing the virulence of viruses, bacteria, yeasts, or fungus” (priority 2020, dated 2026):
Entries after “also recorded” stand apart in the source; their conditions may differ. Where two headings read alike, the source gives them in different places.

Assays:
COVID-19 = experiment: Nebulized LA outpatient treatment of COVID-19 patients and close contacts (case studies); format: in vivo, human
Protocol: After informed consent of the risks and potential benefits, we nebulized 0.56 ml 11 mM LA every 4 hours to treat two COVID-19 patients. The initial treatment of the […] began after two days of symptoms and the […] began treatment after their first day symptoms. Treatment observations of these two cohabiting patients occurred in their home to alter the likely course of clinical deterioration given their co-morbidities.
They were treated with 0.56 ml 11 mM nebulized LA every 4 hours, around the clock for 7 days. Oxygen saturation levels were recorded by the patient using a pulse oximeter. The initial and final evaluation was conducted as a home visit. All other evaluations were conducted by telephone. The treatment timeline starts the day after the initial home visit. • Day 1: they reported a total loss of taste and smell and mild chest pain. They also reported absence of dyspnea early that day and improved cough. Their oxygen saturation measured 98% (up from 94%). • Day 2: they reported intermittent taste and smell through day 4. Their chest pain resolved. They also reported infrequent loose bowel movements which improved and resolved over the following 3 days. They described no dyspnea. Their oxygen saturation measured 97%. • Day 3: they reported a return of mild dyspnea. Their oxygen saturation measured 95%. • Day 4: they reported dyspnea improvement. Their oxygen saturation measured between 95-98%. • Day 5: they reported that their sense of taste and smell was close to normal. They also reported that their cough had resolved and they had minimal dyspnea. Their oxygen saturation measured 97%. • Day 6: no reported symptoms. Their oxygen saturation measured 97%. • Day 7: no reported symptoms. Their oxygen saturation measured 98%.
After informed consent of the risks and potential benefits, we nebulized 0.56 ml 11 mM LA every 4 hours around the clock for 7 days. […] […] initial oxygen saturation measured 96%.
Oxygen saturation levels were recorded by the patient using a pulse oximeter. The initial and final evaluation was conducted as a home visit. All other evaluations were conducted by telephone. The treatment timeline starts the day after the initial home visit. • Day 1: they reported loss of taste and smell and fatigue. Their wheezing had improved. They reported no dyspnea. Oxygen saturation measured 95%. • Day 2: they reported mild wheezing and dyspnea. Their oxygen saturation measured 94%. An additional treatment of an Albuterol nebulizer and Methylprednisolone Dosepak was started for their asthma exacerbation. When starting nebulized Albuterol, this patient inadvertently discontinued the nebulized LA because they misunderstood instructions. This cessation of nebulized LA was not reported to the treating physician until Day 4. • Day 3: they reported improved loss of taste and smell and cough. Dyspnea worsened. Oxygen saturation measured 98% • Day 4: they reported that the loss of taste and smell improved. They also reported mild wheezing and cough. Oxygen saturation measured 95%. The patient reported the Albuterol nebulizer aggravated dyspnea symptoms. Because of their complaint, the Albuterol nebulizer was discontinued. Nebulized LA treatment was started again. • Day 5: they reported no loss of taste and smell. Minimal cough, wheeze, and dyspnea. Oxygen saturation measured 96% • Day 6: no reported symptoms. Oxygen saturation measured 98%. • Day 7: no reported symptoms. Oxygen saturation measured 98%.
Four lab confirmed COVID-19 cases, 2 probable cases, and 2 close contacts of confirmed COVID-19 cases were nebulized 0.56 ml 11 mM LA (Table 2). Treatment with LA was started after patients were assessed by their primary physician. Patients presented at different points in their COVID-19 infection. Onset of treatment ranged from asymptomatic to 9 days into the symptom course. Two close contacts with cases were treated. They were asymptomatic. Two close contacts with COVID-19 cases were also nebulized using 0.56 ml 11 mM LA every 4 hours. […]

[1] = system: viral illnesses such as pharyngitis and rhinorrhea; experiment: ILCS spray or wash for the nasopharynx cavity; format: in vivo; conditions: 2-50 mM ILCS spray or wash
microbial growth = experiment: Reduction in microbial growth; format: cell-based; conditions: potassium hexadiene at pH 9
[2] = system: Candida albicans (ATCC 10231); experiment: EPA protocol MB-35-00 hard surface carrier disinfection test; conditions: 0.42 M, 1 min
Protocol: (§1) We used EPA protocol MB-35-00 for testing disinfectants against C. auris (US Environmental Protection Agency. 2017, 2020) and C. albicans ATCC 10231, a yeast common in package spoilage of food and cosmetics.
(§2) We tested 5 batches produced with difference sources of isomerized linoleic acid (Test Substances 1-5).
(§3) The EPA test protocol for testing hard surface disinfection of C. auris (AR0381) with antifungal resistance includes an overnight culture of C. auris (AR.0381) shaken at 200 rpm at 30° C. From this culture, 8 mL was harvested by centrifugation, re-suspended in 2-3 mL phosphate-buffered saline (PBS), and mixed with a 3-part soil load including bovine serum albumin (BSA), yeast extract, and mucin. Metal carriers (10 mm) were inoculated (10 μL culture+soil load) and dried in a desiccator under vacuum (˜70 min). The disk surface was coated with the test substance at 0.42 M (50 μL) for up to 10 min. Following incubation, the carriers were transferred to 10 mL neutralization solution (Sabouraud Dextrose Broth [SDB], a common yeast-mold growth media) for subsequent harvesting on membrane filters. The filtered membranes were transferred to Sabouraud Dextrose Emmons Agar (SDEA) plates to culture for 120 hours at 31° C. Controls consisted of PBS (50 μL) applied to inoculated metal disk carriers, subsequently transferred to 10 mL neutralization solution (SDB), diluted serially in PBS, and plated directly to SDEA plates, See FIG. 2.
(§4) We prepared and qualified these per EPA protocol (US Environmental Protection Agency, 2017). • Soil Stocks: We prepared soil stocks with yeast extract powder (Ref RM027) purchased from Himedia, BSA (A2153) purchased from Sigma Life Science, and gastric mucin (cat #HY-B2196/CS-7626) purchased from Mod Chem Express per SOP MB-35-00 (US Environmental Protection Agency, 2017). • Cell Harvesting: We removed cells from the growth culture media using a Micro-Centrifuge obtained from Changzhou Jintan Sanhe Instrument Co., LTD. (Model TGI6-W) at 10,000×g for 10 min in screw-top-cap vials purchased from Heathrow Scientific (Item HS 100600). The optical density of the inoculate was defined at 15-19 OD600 in PBS with the Ultrospec 10 Cell Density Meter from BioChrom (Holliston, MA, USA) prior to dilution in the soil load. Samples were diluted 1:10 in PBS to obtain absorbance readings between 1.5 and 1.9. • Membrane Filtration: Treated yeasts were collected using a combination of the Rocker (Cat #200300-01) and 47 mm PES membranes with a 0.45 micron pore size obtained from Sterlitech (Catalog #PE54547100).

[3] = Clinical observation on washing with ILPS; format: in vivo; conditions: general cosmetic use
SARS-COV-2 = experiment: Virucidal assay, 2 minutes contact, end-point titer (CCID50) on Vero 76 cells
[4] = system: methacillin resistant Staphylococcus aureus, vancomycin resistant enterococcus, pseudomonas, aspergillus, Candida albicans, Helicobacter pylori; conditions: studies by a third party; cited from earlier work
[5] = Solubility of ILCS preparations; format: physicochemical; conditions: pH 7-10.5
Candida auris AR-0381 = experiment: EPA MLB SOP MB-35-00 stainless steel carrier disinfection with ILPS (Example 5); format: cell-based
[6] = Concentration 11.3% of 12% ICLS, 2 minutes, 22±2° C., Table 4
[7] = Concentration 22.5% of 12% ICLS, 2 minutes, 22±2° C., Table 4
[8] = Concentration 45% of 12% ICLS, 2 minutes, 22±2° C., Table 4
[9] = Concentration 90% of 12% ICLS, 2 minutes, 22±2° C., Table 4
[10] = second experiment, Concentration 0.25% of 12% ICLS, 2 minutes, Table 5
[11] = second experiment, Concentration 0.5% of 12% ICLS, 2 minutes, Table 5
[12] = second experiment, Concentration 1% of 12% ICLS, 2 minutes, Table 5
[13] = second experiment, Concentration 11.3% of 12% ICLS, 2 minutes, 22±2° C., Table 5
[14] = second experiment, LA 1% (4.4 mM), 2 minutes, Tables 8 and 9

Protocol for Candida auris (AR-0381): as §1, §2, §3, §4

Substance: potassium salt of isomerized linoleic acid [ILCS]
- COVID-19 Complications (COVID-19; Cases 1): none
- Total Duration of Symptoms (COVID-19; Cases 1, 0 days of symptoms before treatment): 0 days
- COVID-19 Complications (COVID-19; Cases 2): none
- Total Duration of Symptoms (COVID-19; Cases 2, 2 days of symptoms before treatment): 7 days
- Total Duration of Symptoms (COVID-19; Cases 3, 4 days of symptoms before treatment): 16 days
- Total Duration of Symptoms (COVID-19; Cases 4, 9 days of symptoms before treatment): 23 days
- COVID-19 Complications (COVID-19; Close Contacts 1): none
- Total Duration of Symptoms (COVID-19; Close Contacts 1, asymptomatic at treatment): 0 days
- COVID-19 Complications (COVID-19; Close Contacts 2): none
- Total Duration of Symptoms (COVID-19; Close Contacts 2, asymptomatic at treatment): 0 days
- COVID-19 Complications (COVID-19; Probable Cases 1): Steroid for asthma
- Total Duration of Symptoms (COVID-19; Probable Cases 1, 1 day of symptoms before treatment): 6 days
- COVID-19 Complications (COVID-19; Probable Cases 2): none
- Total Duration of Symptoms (COVID-19; Probable Cases 2, 3 days of symptoms before treatment): 10 days
- side effects to nebulized LA (COVID-19; eight patients of Example 7, nebulized 0.56 ml 11 mM LA, listed as LA): no side effects; also recorded: None of the eight patients reported any side effects
- oxygen saturation (COVID-19; husband, treatment Day 1 (94% before treatment)): 98%
- oxygen saturation (COVID-19; husband, treatment Day 2): 97%
- oxygen saturation (COVID-19; husband, treatment Day 3): 95%
- oxygen saturation (COVID-19; husband, treatment Day 4): 95-98%
- oxygen saturation (COVID-19; husband, treatment Day 5): 97%
- oxygen saturation (COVID-19; husband, treatment Day 6): 97%
- oxygen saturation (COVID-19; husband, treatment Day 7): 98%
- prevention of symptoms in close contacts (COVID-19; two asymptomatic close contacts of COVID-19 cases): completely effective
- side effects to nebulized LA (COVID-19; two patients of Example 6, 0.56 ml 11 mM every 4 hours for 7 days): no side effects
- oxygen saturation (COVID-19; wife, Day 2, Albuterol and Methylprednisolone started, LA inadvertently discontinued): 94%
- oxygen saturation (COVID-19; wife, Day 3, nebulized LA discontinued, on Albuterol): 98%
- oxygen saturation (COVID-19; wife, Day 4, nebulized LA started again): 95%
- oxygen saturation (COVID-19; wife, treatment Day 1 (96% before treatment)): 95%
- oxygen saturation (COVID-19; wife, treatment Day 5): 96%
- oxygen saturation (COVID-19; wife, treatment Day 6): 98%
- oxygen saturation (COVID-19; wife, treatment Day 7): 98%
- symptoms associated with viral illnesses [1]: reduced symptoms
- reduction in microbial growth (microbial growth): 8-10 log reduction
- log kill rate [2]: greater than 5 log
- acne [3]: clinical remission of acne
- log kill rate (Candida auris (AR-0381); 0.42 M, 1 min): greater than 5 log
- log kill rates (Candida auris (AR-0381); 10-min test, the longest time allowed per the SOP): greater than 5 log
- reduction of virus vs virus controls (SARS-COV-2): > 99%
- reduction of virus vs virus controls (SARS-COV-2; 1% (4.4 mM), 2 minutes, second experiment, titer reduced to 1.7 log CCID50 per 0.1 mL): 99%
- reduction of virus vs virus controls (SARS-COV-2; 22.5%-90%, 2 minutes, first experiment, below limit of detection 2.7 log CCID50 per 0.1 mL): > 80%
- LRV (log reduction value) (SARS-COV-2; [6]): >1.8
- Virus Titer (SARS-COV-2; [6]): <1.7 Log10 CCID50 of virus per 0.1 mL
- LRV (log reduction value) (SARS-COV-2; [7]): >0.8
- Virus Titer (SARS-COV-2; [7]): <2.7 Log10 CCID50 of virus per 0.1 mL
- LRV (log reduction value) (SARS-COV-2; [8]): >0.8
- Virus Titer (SARS-COV-2; [8]): <2.7 Log10 CCID50 of virus per 0.1 mL
- LRV (log reduction value) (SARS-COV-2; [9]): >0.8
- Virus Titer (SARS-COV-2; [9]): <2.7 Log10 CCID50 of virus per 0.1 mL
- kill-rate of COVID-19 (SARS-Cov-2) in vitro (SARS-COV-2; LA 4.4-50.2 mM, 2 minutes): 99%
- LRV (log reduction value) (SARS-COV-2; [10]): 0.4
- Virus Titer (SARS-COV-2; [10]): 3.3 Log10 CCID50 of virus per 0.1 mL
- LRV (log reduction value) (SARS-COV-2; [11]): 0.2
- Virus Titer (SARS-COV-2; [11]): 3.5 Log10 CCID50 of virus per 0.1 mL
- LRV (log reduction value) (SARS-COV-2; [12]): 2.0
- Virus Titer (SARS-COV-2; [12]): 1.7 Log10 CCID50 of virus per 0.1 mL
- LRV (log reduction value) (SARS-COV-2; [13]): >2.0
- Virus Titer (SARS-COV-2; [13]): <1.7 Log10 CCID50 of virus per 0.1 mL
- LRV (log reduction value) (SARS-COV-2; [14]): >2.0
- Virus Titer (SARS-COV-2; [14]): <1.7 Log10 CCID50of virus per 0.1 mL
- growth of pathogens [4]: suppresses the growth
- solubility [5]: remain soluble
- kill (Candida auris AR-0381; 2-minute immersion, carriers inoculated with 6-8 log yeast): 100%
- colonies recovered from treated carries (Candida auris AR-0381; undiluted ILPS, 10 minutes, seven carries, untreated 7.1-7.2 log10 CFU): no colonies
- toxicity to cells in titer plates (Vero 76 cells; 11.3% sample, 1/10 dilution): Full toxicity
- toxicity to cells in titer plates (Vero 76 cells; 22.5%-90% samples, 1/10 and 1/100 dilutions): Full toxicity
